From patent US20030012820A1, “Compressible guaifenesin compositions, method for making same and method for making compressed guaifenesin dosage forms therefrom” (priority 2001, published 2003) come the findings set out here.

A short description of data set [1]: Particle size distribution by sieve analysis. In kind it is physicochemical. The source says:
USP grade guaifenesin powders GP-A, GP-B, GP-C and GP-D having the respective particle size distributions set forth below, were used in the examples. Guaifenesin powder GP-A was made by Rhodia Inc., guaifenesin powders GP-B, GP-C and GP-D were obtained from other commercial sources. In the tables below, the result “% R” for a sample means the amount of sample retained on the corresponding screen size set forth in the table, expressed as a percent by weight of the total sample amount, and the result “% CR” for a sample means the cumulative amount of the sample retained on all screen sizes larger than the corresponding screen size, expressed as a percent by weight of the total sample amount.
(§1) The particle size distribution, bulk density, moisture content and flow properties were measured for each of the compositions of Examples 1-10 and for Comparison Examples C1-C4. Comparison Examples C1-C4 were commercially available directly compressible guaifenesin compositions. Particle size distribution was measured by sieve analysis using screens of the indicated mesh sizes. Bulk density was measured using a VanKel cylinder. Moisture content was measured by Karl Fischer titration. Flow properties were measured using a VanKel flowmeter with a strip chart recorder. […] Results are given below in TABLES 1A, 1B and 1C

The nature of data set [2]: Bulk density, VanKel cylinder. The format is physicochemical. As to the method: as §1

Turning to `COc1ccccc1OCC(O)CO` (single isomer, unassigned) [GP-C, guaifenesin], the “% CR (cumulative amount retained)” value worked out at 0% in data set [1] (US Mesh 20 (850 μm)); 2.0% in data set [1] (US Mesh 40 (425 μm)); 3.2% in data set [1] (US Mesh 60 (250 μm)); 3.2% in data set [1] (US Mesh 80 (180 μm)); 4.0% in data set [1] (US Mesh 100 (150 μm)); 11.2% in data set [1] (US Mesh 200 (75 μm)). Moreover, the results for the “% CR (cumulative amount retained)” value in data set [1] (US Mesh 325 (45 μm)) and in data set [1] (pan (<45 μm)) were 77.6% and 100%, respectively. For the same molecule, the “% R (amount retained on screen)” value in data set [1] (US Mesh 20 (850 μm)) amounted to 0%; in data set [1] (US Mesh 40 (425 μm)), 2.0%; in data set [1] (US Mesh 60 (250 μm)), 1.2%; in data set [1] (US Mesh 80 (180 μm)), 0%; in data set [1] (US Mesh 100 (150 μm)), 0.8%; in data set [1] (US Mesh 200 (75 μm)), 7.2%. Further, the “% R (amount retained on screen)” value in data set [1] (US Mesh 325 (45 μm)) is listed as 66.4%. The “% R (amount retained)” value in data set [1] (pan (<45 μm)) came out at 22.4%. In addition, the “Bulk Density” value in data set [2] came to 0.35 g/cc.

On to `COc1ccccc1OCC(O)CO` (single isomer, unassigned) [GP-D, guaifenesin], for which the “% CR (cumulative amount retained)” value turned out to be 0% in data set [1] (US Mesh 20 (850 μm)); 0% in data set [1] (US Mesh 40 (425 μm)); 0% in data set [1] (US Mesh 60 (250 μm)); 3.2% in data set [1] (US Mesh 80 (180 μm)); 9.6% in data set [1] (US Mesh 100 (150 μm)); 60.0% in data set [1] (US Mesh 200 (75 μm)). The results for the “% CR (cumulative amount retained)” value in data set [1] (US Mesh 325 (45 μm)) and in data set [1] (pan (<45 μm)) were 89.6% and 100%, respectively. The “% R (amount retained on screen)” value in data set [1] (US Mesh 20 (850 μm)) was determined as 0%; in data set [1] (US Mesh 40 (425 μm)) it was 0%; in data set [1] (US Mesh 60 (250 μm)), 0%; in data set [1] (US Mesh 80 (180 μm)), 3.2%; in data set [1] (US Mesh 100 (150 μm)) it was 6.4%; in data set [1] (US Mesh 200 (75 μm)) it was 50.4%. Besides, the “% R (amount retained on screen)” value in data set [1] (US Mesh 325 (45 μm)) was 29.6%. Further, the “% R (amount retained)” value in data set [1] (pan (<45 μm)) amounted to 10.4%. The “Bulk Density” value in data set [2] is reported as 0.40 g/cc.

In the case of `COc1ccccc1OCC(O)CO` (single isomer, unassigned) [GP-B, guaifenesin], the “% CR (cumulative amount retained)” value in data set [1] (US Mesh 20 (850 μm)) is 0%; in data set [1] (US Mesh 40 (425 μm)) it was 0.4%; in data set [1] (US Mesh 60 (250 μm)) it was 0.4%; in data set [1] (US Mesh 80 (180 μm)), 2.4%; in data set [1] (US Mesh 100 (150 μm)) it was 3.2%; in data set [1] (US Mesh 200 (75 μm)) it was 11.2%. Moreover, the entries for the “% CR (cumulative amount retained)” value in data set [1] (US Mesh 325 (45 μm)) and in data set [1] (pan (<45 μm)) were 58.0% and 100%, respectively. Further, the “% R (amount retained on screen)” value in data set [1] (US Mesh 20 (850 μm)) came out at 0%; in data set [1] (US Mesh 40 (425 μm)), 0.4%; in data set [1] (US Mesh 60 (250 μm)), 0%; in data set [1] (US Mesh 80 (180 μm)), 2.0%; in data set [1] (US Mesh 100 (150 μm)) it was 0.8%; in data set [1] (US Mesh 200 (75 μm)) it was 8.0%. Besides, the “% R (amount retained on screen)” value in data set [1] (US Mesh 325 (45 μm)) was determined as 46.8%. In addition, the “% R (amount retained)” value in data set [1] (pan (<45 μm)) amounted to 42.0%. In data set [2], the “Bulk Density” value came to 0.41 g/cc.

Take `COc1ccccc1OCC(O)CO` (single isomer, unassigned) [GP-A, guaifenesin]: the “% CR (cumulative amount retained)” value in data set [1] (US Mesh 20 (850 μm)) is given as 0%; in data set [1] (US Mesh 40 (425 μm)) it was 0%; in data set [1] (US Mesh 60 (250 μm)), 0.8%; in data set [1] (US Mesh 80 (180 μm)), 3.2%; in data set [1] (US Mesh 100 (150 μm)) it was 7.6%; in data set [1] (US Mesh 200 (75 μm)), 38.4%. In addition, the “% CR (cumulative amount retained)” value is 76.8% in data set [1] (US Mesh 325 (45 μm)) and 100% in data set [1] (pan (<45 μm)). Further, the “% R (amount retained on screen)” value is 0% in data set [1] (US Mesh 20 (850 μm)); 0% in data set [1] (US Mesh 40 (425 μm)); 0.8% in data set [1] (US Mesh 60 (250 μm)); 2.4% in data set [1] (US Mesh 80 (180 μm)); 4.4% in data set [1] (US Mesh 100 (150 μm)); 30.8% in data set [1] (US Mesh 200 (75 μm)). Further, the “% R (amount retained on screen)” value in data set [1] (US Mesh 325 (45 μm)) stood at 38.4%. The “% R (amount retained)” value in data set [1] (pan (<45 μm)) worked out at 23.2%. For the same molecule, in data set [2], the “Bulk Density” value worked out at 0.45 g/cc.
